Patent US11242327B2, “Analgesic compounds” (RECURIUM IP HOLDINGS, LLC, priority 2017, dated 2022)

Tests used:
Type in all cases: in vivo
male Sprague-Dawley rats [1] = experiment: UVB Inflammatory Pain Test (thermal hyperalgesia); settings: rat, oral, 30 mg/kg
Experimental: UVB irradiation to the surface of the hind paw was used to induce cutaneous inflammatory pain in non-fasted male Sprague-Dawley rats weighing 175-300 g. On Day −3, animals were restrained and the plantar surface of the left hind paw was exposed to 350 mJoules/cm^2 of UVB irradiation using a narrow band UVB light source (Daavlin®, Bryan, Ohio). Following UVB irradiation, animals were returned to their home cage. Thermal hyperalgesia was assessed prior to dosing and approximately 1, 2, and 4 hours after dosing on Day 0 using a radiant heat plantar test apparatus (IITC Life Sciences©; Woodland Hills, Calif.). Animals were placed in individual acrylic chambers on a glass platform warmed to 30±2° C. and allowed to acclimate to their surroundings for a minimum of 15 minutes before testing. The stimulus was presented to the plantar surface and the timer was activated. The stimulus intensity was set such that pre-injury paw withdrawal latencies were approximately 12-18 seconds. Paw withdrawal latency values were recorded at the first observed nocifensive behavior (paw withdrawal, flinching, biting and/or licking). Three paw withdrawal latencies were measured for each hind paw per time point. The mean of the 3 values was taken as the paw withdrawal latency for that time point. A maximum cutoff latency of 30 seconds was used to prevent injury to the animal. The mean and standard error of the mean (SEM) were determined for each paw for each treatment group at each time point. Test compounds were administered orally at concentrations of 3, 10, 30 or 100 mg/kg; celecoxib was administered orally at a concentration of 30 mg/kg; and acetaminophen was administered orally at a concentration of 300 mg/kg. The control group received the vehicle (sterile water). In Table 4, ‘A’ designates >8 seconds of paw withdrawal latency, ‘B’ designates >6 and <8 seconds of paw withdrawal latency, and ‘C’ designates <6 seconds of paw withdrawal latency.
The results provided in Table 4 are for oral administration in rats. […] Furthermore, while acetaminophen was dosed at 300 mg/kg, compounds of Formulae (Ie), (Ih) and (Ik), or a pharmaceutically acceptable salt of any of the foregoing, were dosed at 3 mg/kg, 10 mg/kg and 100 mg/kg.

male Sprague-Dawley rats [2] = experiment: Osteoarthritis Pain Test (MIA, mechanical hyperalgesia); settings: rat, oral once daily, 30 mg/kg
Experimental: Osteoarthritis pain was induced in non-fasted male Sprague-Dawley rats weighing 150-250 g by injecting 2 mg of monosodium iodoacetate (MIA) into the left knee joint. Mechanical hyperalgesia was measured using a digital Randall-Selitto device (dRS; IITC Life Sciences©; Woodland Hills, Calif.). Animals were allowed to acclimate to the testing room for a minimum of 15 minutes before testing. Animals were placed in a restraint sling that suspended the animal, leaving the hind limbs available for testing. The stimulus was applied to the knee joint by a blunt tip and pressure was applied gradually over approximately 10 seconds. Joint compression threshold values were recorded at the first observed nocifensive behavior (vocalization, struggle, or withdrawal). One reading per joint was taken at each time point, and a maximum stimulus cutoff of 500 grams was used to prevent injury to the animal. Mechanical hyperalgesia was assessed prior to MIA injection, and again 14 days later. After 14 days, test or control articles were administered once daily for 7 days with mechanical hyperalgesia assessed prior to dosing, 1, 2, and 4 hours post-dosing on days 0, 3, and 6. Test compounds were administered orally at concentrations of 3, 10, 30 or 100 mg/kg and celecoxib was administered orally at a concentration of 30 mg/kg. The control group received the vehicle (sterile water). After day 0, groups receiving the 100 mg/kg dose were reduced to a dose of 3 mg/kg. In Table 5, ‘A’ designates ≥375 grams of joint compression, ‘B’ designates ≥325 and <375 grams of joint compression, and ‘C’ designates <325 grams of joint compression.
The results provided in Table 5 are for oral administration in rats.

male Sprague-Dawley rats [3] = experiment: Formalin Paw Test, rat, oral; settings: 30 mg/kg; for Early Phase, seconds of paw licking: early/acute phase (0-10 minutes); for Late Phase, seconds of paw licking: late/tonic phase (10-35 minutes)
Experimental: One test compound or the vehicle was administered to each rat or mouse in each test group (8 rats or mice per group). Non-fasted male Sprague-Dawley rats weighing 200-225 g or non-fasted male ICR mice weighing 23±3 g were used. […] Responses were measured every 5 minutes after the formalin injection for 35 minutes. The results in Table 2 are for oral administration in rat and the results in Table 3 are for intraperitoneal administration in mouse. In Tables 2 and 3, 'A' designates <70 seconds of paw licking, 'B' designates >70 and <165 seconds of paw licking, and 'C' designates >165 seconds of paw licking.

Row | Compound | Early Phase, seconds of paw licking (male Sprague-Dawley rats [3]) | Late Phase, seconds of paw licking (male Sprague-Dawley rats [3]) | other results
1 | Cc1ccc(-c2cc(C(F)(F)F)nn2-c2ccc(S(N)(=O)=O)cc2)cc1 [Celecoxib, reference compound] |  |  | paw withdrawal latency, 1 h (male Sprague-Dawley rats [1]; 1 h after dosing): A (>8 seconds of paw withdrawal latency); paw withdrawal latency, 2 h (male Sprague-Dawley rats [1]; 2 h after dosing): A (>8 seconds of paw withdrawal latency); paw withdrawal latency, 4 h (male Sprague-Dawley rats [1]; 4 h after dosing): A (>8 seconds of paw withdrawal latency); joint compression threshold, Day 0, 1 h (male Sprague-Dawley rats [2]; Day 0, 1 h post-dosing): B (≥325 and <375 grams of joint compression); joint compression threshold, Day 0, 2 h (male Sprague-Dawley rats [2]; Day 0, 2 h post-dosing): A (≥375 grams of joint compression); joint compression threshold, Day 0, 4 h (male Sprague-Dawley rats [2]; Day 0, 4 h post-dosing): B (≥325 and <375 grams of joint compression); joint compression threshold, Day 3, 1 h (male Sprague-Dawley rats [2]; Day 3, 1 h post-dosing): C (<325 grams of joint compression); joint compression threshold, Day 3, 2 h (male Sprague-Dawley rats [2]; Day 3, 2 h post-dosing): A (≥375 grams of joint compression); joint compression threshold, Day 3, 4 h (male Sprague-Dawley rats [2]; Day 3, 4 h post-dosing): A (≥375 grams of joint compression); joint compression threshold, Day 6, 1 h (male Sprague-Dawley rats [2]; Day 6, 1 h post-dosing): B (≥325 and <375 grams of joint compression); joint compression threshold, Day 6, 2 h (male Sprague-Dawley rats [2]; Day 6, 2 h post-dosing): A (≥375 grams of joint compression); joint compression threshold, Day 6, 4 h (male Sprague-Dawley rats [2]; Day 6, 4 h post-dosing): A (≥375 grams of joint compression)
2 | COc1ccc(C23CC(N)(C2)C3)cc1.Cl [Compound 4, 3-(4-Methoxyphenyl)bicyclo[1.1.1]pentan-1-amine hydrochloride] | A (<70 seconds of paw licking) | A (<70 seconds of paw licking) | 
3 | CC(C)=C(F)C12CC(N)(C1)C2.Cl [Compound 21, 3-(1-fluoro-2-methylprop-1-en-1-yl)bicyclo[1.1.1]pentan-1-amine hydrochloride] | A (<70 seconds of paw licking) | C (>165 seconds of paw licking) | 
4 | CC(C)C(F)(F)C12CC(N)(C1)C2.Cl [Compound 20, 3-(1,1-Difluoro-2-methylpropyl)bicyclo[1.1.1]pentan-1-amine hydrochloride] | A (<70 seconds of paw licking) | C (>165 seconds of paw licking) | 
5 | Cl.NC12CC(c3nc4cc(Cl)ccc4o3)(C1)C2 [Compound 16, 3-(5-chlorobenzo[d]oxazol-2-yl)bicyclo[1.1.1]pentan-1-amine hydrochloride] | A (<70 seconds of paw licking) | C (>165 seconds of paw licking) | 
6 | Cl.NC12CC(c3cccc(C(F)(F)F)c3)(C1)C2 [Compound 5] | A (<70 seconds of paw licking) | B (>70 and <165 seconds of paw licking) | 
7 | Cl.OCCNC12CC(C(F)(F)F)(C1)C2 [Compound 9, 2-((3-(Trifluoromethyl)bicyclo[1.1.1]pentan-1-yl)amino)ethan-1-ol hydrochloride] | A (<70 seconds of paw licking) | C (>165 seconds of paw licking) | 
8 | Cl.NC12CC(c3nccc(C(F)(F)F)n3)(C1)C2 [Compound 12, 3-(4-(Trifluoromethyl)pyrimidin-2-yl)bicyclo[1.1.1]pentan-1-amine hydrochloride] | A (<70 seconds of paw licking) | C (>165 seconds of paw licking) | 
9 | Cl.NC12CC(c3ccccc3)(C1)C2 [Compound 22, 3-Phenylbicyclo[1.1.1]pentan-1-amine hydrochloride] | A (<70 seconds of paw licking) | B (>70 and <165 seconds of paw licking) | 
10 | Cl.NC12CC(c3ccc(Cl)cc3)(C1)C2 [Compound 10, 3-(4-Chlorophenyl)bicyclo[1.1.1]pentan-1-amine hydrochloride] | A (<70 seconds of paw licking) | A (<70 seconds of paw licking) | 
11 | Cl.NC12CC(c3nc4cc(C(F)(F)F)ccc4s3)(C1)C2 [Compound 14, 3-(5-(trifluoromethyl)benzo[d]thiazol-2-yl)bicyclo[1.1.1]pentan-1-amine hydrochloride] | A (<70 seconds of paw licking) | C (>165 seconds of paw licking) | 
12 | Cl.NC12CC(c3nc4cc(F)ccc4[nH]3)(C1)C2 [Compound 17, 3-(5-fluoro-1H-benzo[d]imidazol-2-yl)bicyclo[1.1.1]pentan-1-amine hydrochloride] | A (<70 seconds of paw licking) | C (>165 seconds of paw licking) | 
13 | Cl.NC12CC(c3ccnc(C(F)(F)F)n3)(C1)C2 [Compound 11, 3-(2-(Trifluoromethyl)pyrimidin-4-yl)bicyclo[1.1.1]pentan-1-amine hydrochloride] | A (<70 seconds of paw licking) | C (>165 seconds of paw licking) | 
14 | COc1cccc(C23CC(N)(C2)C3)c1.Cl [Compound 18, 3-(3-Methoxyphenyl)bicyclo[1.1.1]pentan-1-amine hydrochloride] | A (<70 seconds of paw licking) | B (>70 and <165 seconds of paw licking) | 
15 | CC(F)(F)C12CC(N)(C1)C2.Cl [Compound 19, 3-(1,1-Difluoroethyl)bicyclo[1.1.1]pentan-1-amine hydrochloride] | A (<70 seconds of paw licking) | B (>70 and <165 seconds of paw licking) | 
16 | Cl.NC12CC(c3nc4cc(C(F)(F)F)ccc4o3)(C1)C2 [Compound 15, 3-(5-(Trifluoromethyl)benzo[d]oxazol-2-yl)bicyclo[1.1.1]pentan-1-amine hydrochloride] | A (<70 seconds of paw licking) | C (>165 seconds of paw licking) | 
17 | Cl.NC12CC(c3ccc(C(F)(F)F)cc3)(C1)C2 [Compound 3, 3-(4-(trifluoromethyl)phenyl)bicyclo[1.1.1]pentan-1-amine hydrochloride] | A (<70 seconds of paw licking) | A (<70 seconds of paw licking) | 
18 | CCNC12CC(C(F)(F)F)(C1)C2.Cl [Compound 8, N-Ethyl-3-(trifluoromethyl)bicyclo[1.1.1]pentan-1-amine hydrochloride] | A (<70 seconds of paw licking) | C (>165 seconds of paw licking) | 
